Reference: PubChem BioAssay (NCI)
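The compound was tested at five concentrations on cells cultured in 96-well plates, with a 48-hour exposure period. GI50 is the concentration that inhibits growth by half. At the TGI there is no net growth.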

Legend:
Assay in all cases: inhibition of tumour cell growth, NCI panel, 48 h
[1] = test system: HCT-15 colon
[2] = test system: LOX IMVI melanoma
[3] = test system: COLO 205 colon
[4] = test system: SK-MEL-28 melanoma
[5] = test system: UACC-62 melanoma
[6] = test system: DU-145 prostate

Row | Compound | TGI [1] [µM] | TGI [2] [µM] | TGI [3] [µM] | TGI [4] [µM] | TGI [5] [µM] | TGI [6] [µM] | GI50 [6] [µM]
1 | Nc1ncnc2c1ncn2[C@@H]1C[C@@H]1CO | > 100 | > 100 |  |  |  |  | 
2 | O=C(Oc1ccccn1)c1cc2cc(CCl)ccc2oc1=O | > 100 | > 100 | > 100 | > 100 | 85.6 | > 100 | 
3 | Cn1c(=O)c(-c2ccccc2)c(N=[N+]=[N-])c2ccccc21 | > 100 |  | > 100 | > 100 | > 100 | > 100 | 
4 | Nc1nc(SC/C=C/c2ccccc2)c2[nH]cnc2n1 | > 100 | > 100 | > 100 | > 100 | > 100 | > 100 | 
5 | N#CCCN(C(=O)Nc1ccccc1)[C@H]1CCCC[C@@H]1N(C(=O)Nc1ccccc1)c1ccccc1 | > 100 | > 100 | > 100 | > 100 | > 100 | > 100 | 
6 | CCOC(=O)NC(Nc1ccc(S(=O)(=O)Nc2nc(C)cc(C)n2)cc1)(C(=O)OCC)C(F)(F)F (stereo not drawn) | > 100 | > 100 | > 100 | > 100 | > 100 | > 100 | 
7 | CN=C(N=Nc1c(O)[nH]c2ccccc12)SCC(=O)c1ccc(Br)cc1 | > 89.3 | > 47.7 | > 100 | > 78.1 | > 100 | 30.5 | 
8 | COc1ccc(-[n+]2nc(S(=O)(=O)O)c(/C=C/c3ccc(N(C)C)cc3)cc2C#N)cc1 | > 100 | > 100 | > 100 | > 100 | > 100 | > 100 | 
9 | CC1CCC(=O)C(C(=O)CC2CC(=O)N(C)C(=O)C2)C1 (stereo not drawn) | > 100 | > 100 | > 100 | > 100 | > 100 | > 100 | 
10 | CC(CO)(CO)N1C(=O)C2C3C=CC(C3)C2C1=O (stereo not drawn) | > 100 | > 100 | > 100 | > 100 | > 100 | > 100 | 
11 | O=C(O)C(NCc1ccccc1)C(NCc1ccccc1)C(=O)O (stereo not drawn) | > 100 | > 100 | > 100 | > 100 | > 100 | > 100 | 
12 | O=C1C(c2c(O)[nH]c3ccc(F)cc23)=Nc2ccccc21 | > 100 | > 100 | > 100 | > 100 | > 100 | > 100 | 
13 | COc1ccc2cc(/C=N/NC(=O)Nc3ccccc3)ccc2c1 | > 100 | > 100 | > 100 |  | > 100 | > 100 | 
14 | NC(=O)C(C(N)=O)=C(O)C(=O)/C=C(\O)c1ccccc1 | > 100 | > 100 | > 100 | > 100 | > 100 | > 100 | 
15 | COc1ccc(P2(=S)OC(C)(C)C(C)(C)O2)cc1 | > 100 | > 100 |  | > 100 | > 100 | > 100 | 
16 | CC(=O)Oc1ccc2c(C)cc(=O)oc2c1OC(C)=O | 81.6 | > 100 | > 100 | > 100 | > 100 | > 100 | 

Row | Compound | TGI [1] [µM] | TGI [2] [µM] | TGI [3] [µM] | TGI [4] [µM] | TGI [5] [µM] | TGI [6] [µM] | GI50 [6] [µM]
17 | Cc1nc2c(nc1C)-c1[nH]c3c(c1C(=O)C2=O)CCCC3=O | 8.08 | 2.87 | 7.93 | 3.16 | 3.25 | 23.5 | 
18 | O=c1c(/C=C/c2c(O)ccc3ccccc23)nnc2sc(-c3cccc(Br)c3)nn12 | 64.7 | 26.9 | > 100 | > 100 | 68.6 | 45.3 | 
19 | CCOC1OC(=O)c2cc3ccc4c(c3c(-c3ccc5c(c3)OCO5)c21)OCO4 (stereo not drawn) | > 100 | > 100 | 5.16 | > 100 | > 59.2 | > 100 | 
20 | CC(O)C1(CNc2cc(Cl)nc(N)n2)CCC1 (stereo not drawn) | > 100 | > 100 |  | > 100 | > 100 | > 100 | 
21 | COC(=O)c1cc2ccc(N)nc2[nH]c1=O | > 100 | > 100 | > 100 | > 100 |  |  | 
22 | CSc1ncnc2c1ncn2CCC(=O)OC(C)(C)C |  | > 100 | > 100 | > 100 |  | > 100 | 
23 | Cn1ccc(C(=O)NCCN(CCNC(=O)c2ccn(C)c(=O)c2O)CCNC(=O)c2cccc(=O)n2O)c(O)c1=O | > 100 | > 100 | > 100 | > 100 | > 100 | > 100 | 
24 | Cc1ccc(-n2c(N)c(C#N)c3[nH]nc(N)c3c2=O)cc1 | > 100 | > 100 | > 100 | > 100 | > 100 | > 100 | 
25 | O=C(Nc1nc(C23CC4CC(CC(C4)C2)C3)cs1)c1cc2ccc(O)cc2oc1=O | 47.6 | 22.2 | 50.4 | 47 |  | > 100 | 
26 | Cc1nn(-c2ccccc2)c2c1C(c1ccc(Cl)cc1)NC(=S)N2 (stereo not drawn) | 37.7 | 31.1 | 31.2 |  | 60.5 | > 100 | 
27 | Cc1cc2oc(=N)c(C#N)c(C)c2cc1C | > 100 | > 100 | > 100 | > 100 | > 100 | > 100 | 
28 | Fc1cc(-c2cc(-c3ccccc3)no2)c(Cl)cc1Cl | > 68.4 | > 21.2 | > 16.2 | > 56.4 | > 100 | > 48.6 | 
29 | CN(C)CCCN1CCC2(CCC(C(C)(C)C)CC2)CC1 | 9.55 | 3.22 | 3.04 | 3.36 | 3.33 | 19.3 | 
30 | CCOC(=O)CC[C@H](NC(=O)[C@H](N)Cc1ccc(N(CCCl)CCCl)cc1)C(=O)OCC | > 55.7 | 41.6 | 52.9 | > 54.3 | 15.2 | 43.9 | 
31 | C=C(C)[C@@H]1CC[C@]2(C(=O)NC3CCCCC3)CC[C@]3(C)[C@H](CC[C@@H]4[C@@]5(C)CCCNC(C)(C)[C@@H]5CC[C@]43C)[C@@H]12 |  |  |  |  |  | 3.63 | 1.91
